Eleven molecules from PubChem BioAssay (NCI) can be followed below.

Test in all cases: inhibition of tumour cell growth, NCI panel, 48 h
For test [1], the system named is HCC-2998 colon.
Test [2] concerns KM12 colon.
Test [3] relates to MDA-MB-231 breast.
For test [4], the system named is NCI-H460 lung.
Test [5] deals with OVCAR-3 ovarian.
The subject of test [6] is OVCAR-4 ovarian.
Test [7] relates to U251 CNS.

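Where inhibition never reached the appropriate level, the endpoint shown equals the highest concentration tested. Otherwise, values were interpolated linearly from a five-concentration, 48-hour dose response in 96-well plates. The concentration for 50% growth inhibition is given as GI50. At the TGI there is no net growth.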

Consider `O=C1C=C(OCC=C(Cl)Cl)C(=O)c2ccccc21`, for which the GI50 in test [1] is > 100 µM; in test [2], 8.41 µM; in test [3], 3.11 µM; in test [4] it was 39.3 µM; in test [5], 1.9 µM; in test [6], 1.61 µM. In addition, the GI50 in test [7] is 2.41 µM. For the same molecule, the TGI was > 100 µM in test [1]; > 90.7 µM in test [2]; 17.7 µM in test [3]; > 100 µM in test [4]; 4.13 µM in test [5]; 3 µM in test [6]. The same molecule yielded a TGI in test [7] of 13.8 µM.

`COC(=O)C(=O)C(C(=O)C(=O)Nc1nc(=S)[nH][nH]1)c1nc2ccc([N+](=O)[O-])cc2[nH]c1=O` (stereo not drawn): the TGI in test [1], in test [2], in test [3], in test [4], in test [5] and in test [6] was > 100 µM throughout. In addition, in test [7], the TGI is > 100 µM.

As to `CN1CCN(Cc2ccc(NC(=O)c3[nH]ncc3Nc3cc(OC4CCCC4)ncn3)cc2)CC1`, the GI50 in test [1] is 3.1 µM; in test [2], 2.18 µM; in test [3] it was 2.64 µM; in test [4], 1.61 µM; in test [5], 1.77 µM; in test [6], 2.07 µM. For the same molecule, the GI50 in test [7] is 3.38 µM. Besides, the TGI in test [1] amounted to 10.5 µM; in test [2], 6.19 µM; in test [3] it was 7.46 µM; in test [4] it was 5.97 µM; in test [5], 3.69 µM; in test [6], 7.18 µM. This molecule gave a TGI in test [7] of 12.7 µM.

As for `COc1ccc(OC)c(/C=C/C(=O)c2ccc3cc(OC)ccc3c2)c1`, the GI50 in test [1] is 0.795 µM; in test [2], 3.02 µM; in test [3] it was > 50 µM; in test [4] it was 10.3 µM; in test [5], 1.64 µM; in test [6], 10.8 µM. Moreover, in test [7], the GI50 is 7.19 µM. For the same molecule, the TGI was 2.44 µM in test [1]; 11.2 µM in test [2]; > 50 µM in test [3]; > 50 µM in test [4]; 11.9 µM in test [5]; > 50 µM in test [6]. Besides, the TGI in test [7] was > 50 µM.

As for `O=C(O)CSc1nnc2c3ccccc3c3ccccc3c2n1`, the TGI in test [1], in test [2], in test [3], in test [4], in test [5] and in test [6] was > 100 µM in each case. For the same molecule, the TGI in test [7] was > 100 µM.

Consider `CCCNC(=O)Nc1ccc2c(c1)Cc1cc(N(CCCl)CCCl)ccc1-2`, for which the TGI in test [1] is 67.6 µM; in test [2], 56.5 µM; in test [3], > 100 µM; in test [4] it was > 100 µM; in test [5] it was 54.4 µM; in test [7], > 100 µM.

As to `CN(C)c1ccc(/C=N/NC(=O)c2cnc3ccccc3c2)cc1`, the TGI in test [1], in test [2], in test [3], in test [4], in test [5] and in test [6] was > 100 µM in each case. Besides, the TGI in test [7] is > 100 µM.

Consider `COc1cc[nH]c1/C=C1\C(=O)Nc2ccc([N+](=O)[O-])c(N3CC[C@@H](O)C3)c21`, for which the GI50 in test [1] is 0.544 µM; in test [2], 0.101 µM; in test [3] it was 0.479 µM; in test [4], 0.119 µM; in test [5] it was 0.131 µM; in test [6], 0.488 µM. The GI50 in test [7] was 0.172 µM. For the same molecule, the TGI turned out to be 2 µM in test [1]; 2.22 µM in test [2]; 2.31 µM in test [3]; 2.92 µM in test [4]; 1.59 µM in test [5]; 2.14 µM in test [6]. This molecule gave a TGI in test [7] of 2.07 µM.

With `CNCC1CCn2c(c(C3=C(c4cn(C)c5ccccc45)C(=O)NC3=O)c3ccccc32)C1` (stereo not drawn), the GI50 in test [1] was 3.76 µM; in test [2], 3.41 µM; in test [3] it was 2.54 µM; in test [4], 2.91 µM; in test [5], 3.98 µM; in test [6], 4.17 µM. The GI50 in test [7] is 2.64 µM. The TGI was 7.77 µM in test [1]; 7.41 µM in test [2]; 7.27 µM in test [3]; 6.55 µM in test [4]; 8.97 µM in test [5]; 15.5 µM in test [6]. Besides, the TGI in test [7] is 5.91 µM.

Turning to `C=C1C(OCCO)OC2O[C@]3(C)CCC4[C@H](C)CCC1C24OO3` (stereo partly drawn), the GI50 in test [1] was > 100 µM; in test [2] it was 6.04 µM; in test [4] it was > 100 µM; in test [5], 15.6 µM; in test [6], 6.12 µM; in test [7], 35 µM. Besides, the TGI in test [1], in test [2], in test [4], in test [5], in test [6] and in test [7] was > 100 µM in each case.

As for `O=C(N/N=C/c1cccc(O)c1)c1ccc(C(F)(F)F)nc1Nc1cccc(C(F)(F)F)c1`, the GI50 was 1.02 µM in test [1]; 1.69 µM in test [2]; 1.08 µM in test [3]; 1.74 µM in test [4]; 1.03 µM in test [5]; 0.955 µM in test [6]. The GI50 in test [7] is 1.74 µM. Besides, the TGI in test [1] was 3.42 µM; in test [2], 5.22 µM; in test [3], 3.02 µM; in test [4], 4.52 µM; in test [5], 4.79 µM; in test [6] it was 22.8 µM. In test [7], this molecule registered a TGI of 6.65 µM.
